Measurements taken from the supplement of paper PMC10307832.

Experiments:
Assay in all cases: relative viability (nuclei count vs DMSO), 5 days (fraction); higher = more cells survive
Crizotinib + Navitoclax = compound: C[C@@H](Oc1cc(-c2cnn(C3CCNCC3)c2)cnc1N)c1c(Cl)ccc(F)c1Cl [Crizotinib] + CC1(C)CCC(c2ccc(Cl)cc2)=C(CN2CCN(c3ccc(C(=O)NS(=O)(=O)c4ccc(N[C@H](CCN5CCOCC5)CSc5ccccc5)c(S(=O)(=O)C(F)(F)F)c4)cc3)CC2)C1 [Navitoclax] (partner 0.5 µM)
Method in brief: (§1)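 Relative viability was taken as the ratio of nuclei in treated wells to nuclei in vehicle wells. Lung cancer cell lines in 1536-well plates received compounds by pin tool one day after seeding, either one drug alone or a fixed anchor-drug dose plus five library-drug doses (not always all listed) in √10 steps. Nuclei were counted on 4× images after 5 days of treatment, and values are medians of duplicate plates.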

Crizotinib + Luminespib = compound: C[C@@H](Oc1cc(-c2cnn(C3CCNCC3)c2)cnc1N)c1c(Cl)ccc(F)c1Cl [Crizotinib] + CCNC(=O)c1noc(-c2cc(C(C)C)c(O)cc2O)c1-c1ccc(CN2CCOCC2)cc1 [Luminespib] (partner 0.01 µM)
Method in brief: as §1

Crizotinib + Foretinib = compound: C[C@@H](Oc1cc(-c2cnn(C3CCNCC3)c2)cnc1N)c1c(Cl)ccc(F)c1Cl [Crizotinib] + COc1cc2c(Oc3ccc(NC(=O)C4(C(=O)Nc5ccc(F)cc5)CC4)cc3F)ccnc2cc1OCCCN1CCOCC1 [Foretinib] (partner 0.25 µM)
Method in brief: as §1

Olaparib + Vorinostat = compound: O=C(c1cc(Cc2n[nH]c(=O)c3ccccc23)ccc1F)N1CCN(C(=O)C2CC2)CC1 [Olaparib] + O=C(CCCCCCC(=O)Nc1ccccc1)NO [Vorinostat] (partner 1 µM)
Method in brief: as §1

SW 1573
relative viability (Crizotinib + Navitoclax; first compound 0.01 µM): 0.683
relative viability (Crizotinib + Navitoclax; first compound 0.1 µM): 0.97
relative viability (Crizotinib + Navitoclax; first compound 0.3162 µM): 0.945
relative viability (Crizotinib + Navitoclax; first compound 1 µM): 0.932
relative viability (Crizotinib + Luminespib; first compound 0.01 µM): 0.132
relative viability (Crizotinib + Luminespib; first compound 0.03162 µM): 0.342
relative viability (Crizotinib + Luminespib; first compound 0.1 µM): 0.253
relative viability (Crizotinib + Luminespib; first compound 0.3162 µM): 0.405
relative viability (Crizotinib + Luminespib; first compound 1 µM): 0.236
relative viability (Crizotinib + Foretinib; first compound 0.01 µM): 0.85
relative viability (Crizotinib + Foretinib; first compound 0.03162 µM): 0.762
relative viability (Crizotinib + Foretinib; first compound 0.1 µM): 0.905
relative viability (Crizotinib + Foretinib; first compound 0.3162 µM): 0.77
relative viability (Crizotinib + Foretinib; first compound 1 µM): 0.98
relative viability (Olaparib + Vorinostat; first compound 0.08 µM): 1.08
relative viability (Olaparib + Vorinostat; first compound 0.253 µM): 0.693
relative viability (Olaparib + Vorinostat; first compound 2.53 µM): 0.711
relative viability (Olaparib + Vorinostat; first compound 8 µM): 0.489

UMC-11
relative viability (Crizotinib + Navitoclax; first compound 0.01 µM): 0.285
relative viability (Crizotinib + Navitoclax; first compound 0.03162 µM): 0.308
relative viability (Crizotinib + Navitoclax; first compound 0.1 µM): 0.306
relative viability (Crizotinib + Navitoclax; first compound 0.3162 µM): 0.282
relative viability (Crizotinib + Navitoclax; first compound 1 µM): 0.365
relative viability (Crizotinib + Luminespib; first compound 0.01 µM): 0.898
relative viability (Crizotinib + Luminespib; first compound 0.03162 µM): 1.1
relative viability (Crizotinib + Luminespib; first compound 0.1 µM): 0.885
relative viability (Crizotinib + Luminespib; first compound 0.3162 µM): 0.965
relative viability (Crizotinib + Luminespib; first compound 1 µM): 1.12
relative viability (Crizotinib + Foretinib; first compound 0.01 µM): 1.01
relative viability (Crizotinib + Foretinib; first compound 0.03162 µM): 1.04
relative viability (Crizotinib + Foretinib; first compound 0.1 µM): 1.07
relative viability (Crizotinib + Foretinib; first compound 0.3162 µM): 1.04
relative viability (Crizotinib + Foretinib; first compound 1 µM): 1.02
relative viability (Olaparib + Vorinostat; first compound 0.08 µM): 0.392
relative viability (Olaparib + Vorinostat; first compound 0.253 µM): 0.324
relative viability (Olaparib + Vorinostat; first compound 2.53 µM): 0.365
relative viability (Olaparib + Vorinostat; first compound 8 µM): 0.208
